The subject of this assay is TEAD Reporter-MCF7 cell line. Description: YAP/TEAD cellular activity assay: inhibition of TEAD-Luc activity in TEAD Reporter-MCF7 cell line. Type of assay: cell-based, human. Conditions: Homo sapiens, MCF7, 24 h, TEAD Reporter-MCF7 cells, 24 hours incubation with compound, luciferase readout. In short, it runs like this: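 MCF7 cells stably carrying a TEAD-responsive firefly luciferase reporter were seeded at 10,000 cells/well, grown 20-24 h, then exposed to compounds for 24 h at 37° C. Luciferase read by ONE-Glo EX luminescence; percent inhibition and EC50 derived.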
For the compound `CNS(=O)(=O)c1ccc(Oc2ccc(C(F)(F)F)cc2)c(-c2ccc3c(=O)nc[nH]c3c2)c1` [2-32, N-methyl-3-(4-oxo-1,4-dihydroquinazolin-7-yl)-4-[4-(trifluoromethyl)phenoxy]benzene-1-sulfonamide], the EC50 is 7570 nM.

For the compound `CNS(=O)(=O)c1ccc(Oc2ccc(C(F)F)cc2)c(-c2cnn3c2OCC3)c1` [2-33, 4-[4-(difluoromethyl)phenoxy]-3-(2,3-dihydropyrazolo[5,1-b] [1,3]oxazol-7-yl)-N-methylbenzene-1-sulfonamide], the concentration for a half-maximal effect (EC50) was found to be 356 nM.

Turning to `CNS(=O)(=O)c1ccc(Oc2ccc(SC(F)(F)F)cc2)c(-c2cnn3c2CCC3)c1` [3-1, 3-(5,6-Dihydro-4H-pyrrolo[1,2-b]pyrazol-3-yl)-N-methyl-4-(4-((trifluoromethyl)thio)phenoxy)benzenesulfonamide], the 50% effective concentration (EC50) came out at 447 nM.

For `CNS(=O)(=O)c1ccc(Oc2cc(C(F)(F)F)cc(C(F)(F)F)c2)c(-c2cnn3c2CCC3)c1` [3-2, 4-[3,5-bis(trifluoromethyl)phenoxy]-3-(5,6-dihydro-4H-pyrrolo[1,2-b]pyrazol-3-yl)-N-methylbenzene-1-sulfonamide], the EC50 is 9140 nM.

Regarding `CNS(=O)(=O)c1ccc(Oc2cc(F)cc(C(F)(F)F)c2)c(-c2cnn3c2CCC3)c1` [3-3, 3-(5,6-dihydro-4H-pyrrolo[1,2-b]pyrazol-3-yl)-4-[3-fluoro-5-(trifluoromethyl)phenoxy]-N-methylbenzene-1-sulfonamide], the 50% effective concentration (EC50) turned out to be 2080 nM.

For the compound `CNS(=O)(=O)c1ccc(Oc2ccc(OC(F)(F)F)cc2)c(-c2cnn3c2CCC3)c1` [3-4, 3-(5,6-dihydro-4H-pyrrolo[1,2-b]pyrazol-3-yl)-N-methyl-4-[4-(trifluoromethoxy)phenoxy]benzene-1-sulfonamide], the EC50 came out at 618 nM.

Consider `CNS(=O)(=O)c1ccc(Oc2cccc(OC(F)(F)F)c2)c(-c2cnn3c2CCC3)c1` [3-5, 3-(5,6-dihydro-4H-pyrrolo[1,2-b]pyrazol-3-yl)-N-methyl-4-[3-(trifluoromethoxy)phenoxy]benzene-1-sulfonamide], for which the concentration giving a half-maximal response (EC50) worked out at 3090 nM.

Take `CNS(=O)(=O)c1ccc(Oc2ccc(CC(F)(F)F)cc2)c(-c2cnn3c2CCC3)c1` [3-6, 3-(5,6-dihydro-4H-pyrrolo[1,2-b]pyrazol-3-yl)-N-methyl-4-[4-(2,2,2-trifluoroethyl)phenoxy]benzene-1-sulfonamide]: the EC50 was 508 nM.

Take `CNS(=O)(=O)c1ccc(O[C@H]2CC[C@H](C(F)(F)F)CC2)c(-c2cn3c(n2)CCC3)c1` [4-1, 3-(6,7-Dihydro-5H-pyrrolo[1,2-a]imidazol-2-yl)-N-methyl-4-(((1r,4r)-4-(trifluoromethyl)cyclohexyl)oxy)benzenesulfonamide]: the EC50 was determined as 52.6 nM.

With `CNS(=O)(=O)c1ccc(Oc2ccc(C(F)(F)F)nc2)c(-c2cn3c(n2)CCC3)c1` [4-2, 3-(6,7-dihydro-5H-pyrrolo[1,2-a]imidazol-2-yl)-N-methyl-4-((6-(trifluoromethyl)pyridin-3-yl)oxy)benzenesulfonamide], the half-maximal effective concentration (EC50) came out at 261 nM.

`CNS(=O)(=O)c1ccc(Oc2ccc(C(C)(C)C)cc2)c(-c2cn3c(n2)CCC3)c1` [4-3, 4-(4-tert-butylphenoxy)-3-(6,7-dihydro-5H-pyrrolo[1,2-a]imidazol-2-yl)-N-methylbenzene-1-sulfonamide]: the EC50 was found to be 5.7 nM.

As to `CNS(=O)(=O)c1ccc(Oc2ccc3c(c2)CCC3)c(-c2cn3c(n2)CCC3)c1` [4-4, 4-[(2,3-dihydro-1H-inden-5-yl)oxy]-3-(6,7-dihydro-5H-pyrrolo[1,2-a]imidazol-2-yl)-N-methylbenzene-1-sulfonamide], the EC50 was determined as 32.3 nM.

For `CNS(=O)(=O)c1ccc(Oc2cccc(Cl)c2)c(-c2cn3c(n2)CCC3)c1` [4-5, 4-(3-chlorophenoxy)-3-(6,7-dihydro-5H-pyrrolo[1,2-a]imidazol-2-yl)-N-methylbenzene-1-sulfonamide], the half-maximal effective concentration (EC50) was determined as 103 nM.

Turning to `CNS(=O)(=O)c1ccc(Oc2cccc(F)c2)c(-c2cn3c(n2)CCC3)c1` [4-6, 3-(6,7-dihydro-5H-pyrrolo [1,2-a]imidazol-2-yl)-4-(3-fluorophenoxy)-N-methylbenzene-1-sulfonamide], the 50% effective concentration (EC50) is 146 nM.

On to `CNS(=O)(=O)c1ccc(Oc2ccc(C)cc2)c(-c2cn3c(n2)CCC3)c1` [4-7, 3-(6,7-dihydro-5H-pyrrolo [1,2-a]imidazol-2-yl)-N-methyl-4-(4-methylphenoxy)benzene-1-sulfonamide], for which the EC50 was found to be 23.8 nM.

For the compound `CNS(=O)(=O)c1ccc(Oc2ccc(C(C)C)cc2)c(-c2cn3c(n2)CCC3)c1` [4-8, 3-(6,7-dihydro-5H-pyrrolo [1,2-a]imidazol-2-yl)-N-methyl-4-[4-(propan-2-yl)phenoxy]benzene-1-sulfonamide], the EC50 was found to be 5.5 nM.

Take `CCc1ccc(Oc2ccc(S(=O)(=O)NC)cc2-c2cn3c(n2)CCC3)cc1` [4-9, 3-(6,7-dihydro-5H-pyrrolo [1,2-a]imidazol-2-yl)-4-(4-ethylphenoxy)-N-methylbenzene-1-sulfonamide]: the EC50 came out at 15.1 nM.

Turning to `CCc1cccc(Oc2ccc(S(=O)(=O)NC)cc2-c2cn3c(n2)CCC3)c1` [4-10, 3-(6,7-dihydro-5H-pyrrolo [1,2-a]imidazol-2-yl)-4-(3-ethylphenoxy)-N-methylbenzene-1-sulfonamide], the EC50 stood at 21.6 nM.

Turning to `CNS(=O)(=O)c1ccc(Oc2ccc(F)c(F)c2)c(-c2cn3c(n2)CCC3)c1` [4-11, 4-(3,4-difluorophenoxy)-3-(6,7-dihydro-5H-pyrrolo[1,2-a]imidazol-2-yl)-N-methylbenzene-1-sulfonamide], the EC50 worked out at 206 nM.

As to `CNS(=O)(=O)c1ccc(Oc2ccc(Cl)cc2)c(-c2cn3c(n2)CCC3)c1` [4-12, 4-(4-chlorophenoxy)-3-(6,7-dihydro-5H-pyrrolo[1,2-a]imidazol-2-yl)-N-methylbenzene-1-sulfonamide], the concentration giving a half-maximal response (EC50) stood at 14.1 nM.

With `CNS(=O)(=O)c1ccc(Oc2ccc(F)cc2)c(-c2cn3c(n2)CCC3)c1` [4-13, 3-(6,7-dihydro-5H-pyrrolo [1,2-a]imidazol-2-yl)-4-(4-fluorophenoxy)-N-methylbenzene-1-sulfonamide], the EC50 worked out at 207 nM.

As to `CNS(=O)(=O)c1ccc(Oc2ccc(OC)cc2)c(-c2cn3c(n2)CCC3)c1` [4-14, 3-(6,7-dihydro-5H-pyrrolo[1,2-a]imidazol-2-yl)-4-(4-methoxyphenoxy)-N-methylbenzene-1-sulfonamide], the concentration giving a half-maximal response (EC50) was determined as 45.7 nM.

Turning to `CNS(=O)(=O)c1ccc(Oc2cccc(C(F)(F)F)c2)c(-c2cn3c(n2)CCC3)c1` [4-15, 3-(6,7-dihydro-5H-pyrrolo[1,2-a]imidazol-2-yl)-N-methyl-4-[3-(trifluoromethyl)phenoxy]benzene-1-sulfonamide], the half-maximal effective concentration (EC50) came out at 22.3 nM.

On to `CNS(=O)(=O)c1ccc(Oc2ccc(Cl)c(C(F)(F)F)c2)c(-c2cn3c(n2)CCC3)c1` [4-16, 4-[4-chloro-3-(trifluoromethyl)phenoxy]-3-(6,7-dihydro-5H-pyrrolo[1,2-a]imidazol-2-yl)-N-methylbenzene-1-sulfonamide], for which the EC50 is 5.2 nM.

In the case of `CNS(=O)(=O)c1ccc(Oc2ccc(SC(F)(F)F)cc2)c(-c2cn3c(n2)CCC3)c1` [4-17, 3-(6,7-dihydro-5H-pyrrolo[1,2-a]imidazol-2-yl)-N-methyl-4-{4-[(trifluoromethyl)sulfanyl]phenoxy}benzene-1-sulfonamide], the half-maximal effective concentration (EC50) came to 14 nM.

One may read the EC50 as the concentration at which the effect is half-maximal.
